The values that follow come from PMC7997411, “Discovery and Optimization of Selective Inhibitors of Meprin α (Part II)” (Pharmaceuticals, 2021).

Assay type in all cases: biochemical
One assay addresses T1, meprin α (Homo sapiens, UniProt Q16819).
T1 construct: Strep-tag; made in house; host or cells: BTI-TN-5B1-4 insect cells (baculovirus, amplified in Sf9)
T1 sequence (Q16819 66-746): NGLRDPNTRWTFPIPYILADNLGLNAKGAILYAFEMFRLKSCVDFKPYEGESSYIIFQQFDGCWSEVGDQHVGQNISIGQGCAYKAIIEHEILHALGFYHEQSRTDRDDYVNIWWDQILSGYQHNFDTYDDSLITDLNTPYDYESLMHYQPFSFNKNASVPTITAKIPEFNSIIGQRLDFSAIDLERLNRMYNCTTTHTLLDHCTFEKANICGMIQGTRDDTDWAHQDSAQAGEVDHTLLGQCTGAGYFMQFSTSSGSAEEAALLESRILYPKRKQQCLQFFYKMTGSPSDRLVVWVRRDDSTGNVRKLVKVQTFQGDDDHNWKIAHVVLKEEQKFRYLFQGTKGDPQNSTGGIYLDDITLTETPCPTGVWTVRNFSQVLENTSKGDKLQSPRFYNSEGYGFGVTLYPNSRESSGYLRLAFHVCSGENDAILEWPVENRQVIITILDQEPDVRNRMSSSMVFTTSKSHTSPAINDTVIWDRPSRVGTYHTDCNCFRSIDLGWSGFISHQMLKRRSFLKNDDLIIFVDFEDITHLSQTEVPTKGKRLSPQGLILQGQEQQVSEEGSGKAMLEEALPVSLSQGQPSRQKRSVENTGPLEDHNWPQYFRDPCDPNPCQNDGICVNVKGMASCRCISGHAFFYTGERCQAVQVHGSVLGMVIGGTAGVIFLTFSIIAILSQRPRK
The experiment in a line: Meprin α assay in a 384-well plate (fluorogenic substrate Mca-YVADAPK-K(Dnp)). How it is done: Recombinant human meprin α and meprin β were expressed using the Bac-to-Bac expression system (Gibco Life Technologies, Paisley, UK) as described before. Media and supplements were obtained from Gibco Life Technologies. Recombinant Baculoviruses were amplified in adherently growing Spodoptera frugiperda (Sf)9 insect cells at 27 °C in Grace’s insect medium supplemented with 10% fetal bovine serum, 50 units/mL penicillin, and 50 μg/mL streptomycin. Protein expression was performed in 500 mL suspension cultures of BTI-TN-5B1-4 insect cells growing in Express Five SFM supplemented with 4 mM glutamine, 50 units/mL penicillin, and 50 μg/mL streptomycin in Fernbach-flasks using a Multitron orbital shaker (INFORS AG, Bottmingen, Switzerland). Cells were infected at a density of 2 × 10^6 cells/mL with an amplified viral stock at a MOI of ~10. […] Meprins were activated by trypsin, which was removed afterwards by affinity chromatography using a column containing immobilized chicken ovomucoid, a trypsin inhibitor.
Both assays followed the same general protocol. […] After 30 min incubation at RT, the reactions were started by addition of 5 µL of 2× solutions of substrates (20 µM, meprin α Mca-YVADAPK-K(Dnp), and for meprin β Mca-EDEDED-K(Dnp)).

The target of another assay is T2, MMP14 (Homo sapiens, UniProt P50281).
T2 construct: purchased R&D Systems 918-MP
The experiment in a line: MMP assay (fluorogenic substrate ES010). The protocol:
(§1) MMP-1, MMP-2, MMP-8, MMP-9, MMP-10, MMP-13, MMP-14, ADAM10, ADAM17 and Mca-KPLGL-Dpa-AR-NH2 fluorogenic peptide substrate were purchased from R&D Systems (cat # 901-MP, 902-MP, 908-MP, 911-MP, 910-MP, 511-MM, 918-MP, 936-AD, 930-ADB, and ES010, respectively). All common chemicals were purchased from Sigma. NFF449 was purchased from Tocris (cat# 1391) and actinonin was from Sigma-Aldrich, St. Louis, MO, USA (cat# 01809).
(§2) All assays followed the same general protocol. 5 µL of 2× enzyme solution (5 nM) in assay buffer (50 mM Tricine, 50 mM NaCl, 10 mM CaCl2, 0.05% Brij-35, pH 7.5) were added to solid-bottom black 384 plates (Nunc, cat# 264705). Next, test compounds and pharmacological controls were added to corresponding wells using a 384-pin tool device (V&P Scientific, San Diego). After 30 min incubation at RT, the reactions were started by addition of 5 µL of 2× solutions of MMP substrate (R&D Systems cat#: ES010, 20 µM). Reactions were incubated at RT for 1 h, after which the fluorescence was measured using the Synergy H4 multimode microplate reader (Biotek Instruments) (λexcitation = 324 nm, λemission = 390 nm). All compounds were tested in 10-point, 1:3 serial dilutions dose-response format starting with highest concentration of 100 µM. IC50 values were determined using non-linear regression analysis using the GraphPad Prism 8.0 suite of programs.

The target in the next assay is T3, MMP2 (Homo sapiens, UniProt P08253).
T3 construct: purchased R&D Systems 902-MP
T3 sequence (P08253 110-660): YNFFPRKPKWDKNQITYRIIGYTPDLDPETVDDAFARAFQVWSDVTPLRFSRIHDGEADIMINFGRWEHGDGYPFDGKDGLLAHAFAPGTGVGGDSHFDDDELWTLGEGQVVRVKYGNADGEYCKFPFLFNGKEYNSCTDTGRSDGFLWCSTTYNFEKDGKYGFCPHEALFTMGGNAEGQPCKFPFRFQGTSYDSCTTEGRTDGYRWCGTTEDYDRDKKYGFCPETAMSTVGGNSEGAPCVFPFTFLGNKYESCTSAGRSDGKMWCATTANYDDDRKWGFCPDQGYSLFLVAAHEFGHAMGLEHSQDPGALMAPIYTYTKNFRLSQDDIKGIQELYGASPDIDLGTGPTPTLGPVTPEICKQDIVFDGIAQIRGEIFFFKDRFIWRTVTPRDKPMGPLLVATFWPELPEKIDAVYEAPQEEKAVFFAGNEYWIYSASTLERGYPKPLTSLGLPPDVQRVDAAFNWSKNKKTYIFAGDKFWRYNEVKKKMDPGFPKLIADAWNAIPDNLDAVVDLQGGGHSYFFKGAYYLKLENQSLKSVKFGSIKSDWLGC
The experiment in a line: MMP assay (fluorogenic substrate ES010). How it is done:
as §1, §2

A further assay has as its target T4, MMP8 (Homo sapiens, UniProt P22894).
T4 construct: purchased R&D Systems 908-MP
The experiment in a line: MMP assay (fluorogenic substrate ES010). The protocol:
as §1, §2

In general, IC50 refers to the concentration needed to halve the response being measured.

The structures appear in SMILES notation. Where “and” joins values, the source holds several entries; their conditions need not be identical. Identical values can stand only once. Like-named read-outs stand apart in the source and are kept apart here.

T4 sequence (P22894 101-467): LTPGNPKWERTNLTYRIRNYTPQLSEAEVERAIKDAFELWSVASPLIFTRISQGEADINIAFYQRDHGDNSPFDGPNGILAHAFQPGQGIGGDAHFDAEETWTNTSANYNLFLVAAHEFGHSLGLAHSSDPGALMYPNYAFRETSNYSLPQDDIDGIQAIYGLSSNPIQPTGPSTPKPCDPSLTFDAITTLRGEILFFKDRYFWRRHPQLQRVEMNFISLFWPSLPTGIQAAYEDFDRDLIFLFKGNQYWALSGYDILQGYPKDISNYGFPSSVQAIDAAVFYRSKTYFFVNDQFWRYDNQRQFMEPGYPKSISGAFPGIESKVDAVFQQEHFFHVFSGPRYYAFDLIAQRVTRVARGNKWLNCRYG

For the molecule `CCCCC[C@H](CC(=O)NO)C(=O)N[C@H](C(=O)N1CCC[C@H]1CO)C(C)C` [Actinonin, actinonin, reference compound], the IC50 against meprin α (triplicate, ± SD) was 0.004 µM; at MMP14, over 1000 µM; on MMP2 it was 0.09 µM; at MMP8, 0.19 µM.

Consider `COc1cc(OC)nc(SCc2nnc(SCC(=O)NO)n2-c2ccc(N(C)C)cc2)n1` [SR24717], for which the IC50 at meprin α was 0.49 to 0.67 µM; at meprin α (triplicate, ± SD), 0.66 ± 0.03 µM; on MMP14 it was over 100 µM; at MMP2 it was over 100 µM; at MMP8, over 100 µM. In addition, the “fold more potent than the HTS hit SR19855 in binding meprin α” value at meprin α was ~ 2 fold. For the same molecule, the “meprin α/β fold selectivity (ratio of IC50 values)” value at meprin α (meprin α over meprin β) is > 100 fold and 106 fold and ~ 106 fold. For the same molecule, the “extent of meprin α inhibition (in words)” value at meprin α (scale-up batch, higher doses tested, Figure 4A) is “full meprin α inhibition”.
